Where “and” joins values, the source holds several entries; their conditions need not be identical. Equal entries are not always repeated.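 Cells were grown in 96-well plates and exposed to each compound for 48 hours at five concentrations; endpoints were interpolated linearly between bracketing concentrations, or set to the highest concentration if not reached. GI50: concentration for 50% inhibition of growth. TGI: concentration producing complete growth inhibition.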
Tests used:
Assay in all cases: NCI-60 cell line screen, 48 h
[1] = system: UACC-62 melanoma
[2] = system: SK-MEL-28 melanoma
[3] = system: T-47D breast
[4] = system: COLO 205 colon
[5] = system: RXF 393 renal
[6] = system: U251 CNS
[7] = system: K-562 leukemia
[8] = system: CCRF-CEM leukemia
[9] = system: MOLT-4 leukemia
[10] = system: RPMI-8226 leukemia

Structure (SMILES) | GI50 [1] [µM] | TGI [1] | GI50 [2] [µM] | TGI [2] [µM] | GI50 [3] [µM] | TGI [3] | GI50 [4] [µM] | TGI [4] | GI50 [5] | TGI [5] | GI50 [6] [µM] | TGI [6] [µM] | GI50 [7] | TGI [7] [µM] | GI50 [8] [µM] | TGI [8] [µM] | GI50 [9] [µM] | TGI [9] [µM] | TGI [10] | GI50 [10] [µM]
Cc1cc(N(CCNc2ccnc3cc(Cl)ccc23)Cc2ccco2)nc(Cl)n1 | 1.78 | 3.38 µM | 1.74 | 3.38 | 1.52 | 3.58 µM | 1.71 | 3.3 µM | 1.27 µM | 2.68 µM | 1.62 | 3.01 | – | – | – | – | – | – | – | –
C[C@@H](CO)[C@@H]1CCC=C2CC[C@]3(C)[C@H](CC[C@@H]4[C@@]5(C)CCCNC(C)(C)[C@@H]5CC[C@]43C)[C@H]21 | 1.73 | 3.18 µM | 1.72 | 3.45 | 2.38 | 7.77 µM | – | – | 2.39 µM | 6.25 µM | 1.84 | 3.46 | 2.01 µM | 6.73 | 3.08 | 13.9 | 2.5 | 7.27 | – | –
COC(=O)CCCC(=O)O | – | > 100 µM | – | > 100 | – | > 100 µM | – | > 100 µM | – | > 100 µM | – | > 100 | – | – | – | – | – | > 100 | – | –
COc1ccc2c(c1)n([O-])c1ccccc1[n+]2=O | – | > 100 µM and 65 µM | – | > 100 | – | > 100 µM and 22.6 µM | – | > 100 µM and 74.7 µM | 25 µM and 10.3 µM | 81.2 µM and 34.8 µM | – | > 100 | 42.6 µM and 15.6 µM | > 100 | – | > 100 | – | > 100 | 97.1 µM and > 100 µM | –
CN(CC(=O)N(Cc1ccc(C2CCCCC2)cc1)c1ccc(C(=O)O)c(O)c1)S(=O)(=O)c1c(F)c(F)c(F)c(F)c1F | 3.18 | 12.1 µM | 1.86 | 3.89 | 8.14 | 27 µM | 12.7 | 26.5 µM | 1.89 µM | 3.76 µM | 1.81 | 3.82 | 2.05 µM | 4.57 | 1.84 | 4.69 | 3.12 | 12 | 6.37 µM | 2.28
COc1cc2c3c(n(CCCI)c(=O)c2cc1OC)-c1cc2c(cc1C3=O)OCO2 | 0.202 | 1.91 µM | 52.1 | > 100 | > 100 | > 100 µM | 9.17 | > 100 µM | 6.81 µM | > 100 µM | 1.21 | 17.5 | 2.27 µM | > 100 | 0.873 | > 100 | 0.126 | > 100 | > 100 µM | 3.76
COc1cc2c(cc1C)NC(=O)/C2=C\c1cccc(Oc2ccccc2)c1 | 12.5 | 25.4 µM | 18.1 | 34.9 | 11.4 | 81.4 µM | 16.6 | 33.5 µM | – | – | 12.4 | 24.9 | 9.83 µM | 39.1 | 6.85 | 24.5 | 6.23 | 21.8 | 24 µM | 5.02
COc1ccc(-c2nc3ccccn3c2/C=C/C(=O)c2cc(OC)c(OC)c(OC)c2)cc1 | 5.58 | > 100 µM | 7.1 | > 100 | 2.59 | 14 µM | 3.5 | 13.5 µM | 2.94 µM | > 100 µM | 3 | 30.6 | 13.1 µM | > 100 | 18.8 | > 100 | 32.9 | > 100 | > 100 µM | 7.5

Source: PubChem BioAssay (NCI)
